Results on 23 compounds are retold here after US9359196B2, “Antiproliferative compositions comprising curcumin analogs and methods of producing and using same” (The Board of Regents of the University of Oklahoma, priority 2009, dated 2016).

pIC50: −log10 of the molar value. Where two headings read alike, the source gives them in different places.

The subject of data set [1] is lung adenocarcinoma cell line H441. The data set can be described thus: Cell proliferation (hexosaminidase assay) in lung adenocarcinoma H441 cells, Example 1. In kind it is cell-based, human. The procedure:
Cell Proliferation Studies: In order to assess the anti-proliferative activity of the synthesized compounds, an in vitro cell culture system of lung adenocarcinoma cell line H441 was used. The cell detachment and anti-proliferative activity was measured as a decrease in hexosaminidase enzyme activity associated with remainder of the adhered cells. [Landegren, 1984] […] The concentration versus cell proliferation plots were analyzed by an exponential fit (Table 1). The results were compared with the anti-proliferative activity of compound 1.
Cell Culture and drug treatment: Human lung adenocarcinoma cell line NCI-H441 (ATCC Number: HTB-174) was obtained from the American Type Culture Collection (Manassas, Va.). H441 cells were maintained at 37° C. with 5% CO2 in McCoy's 5A Medium (Invitrogen, Carlsbad, Calif.) supplemented with 5% heat-inactivated fetal bovine serum (FBS). All media contained gentamicin at 50 μg/ml (GIBCO Laboratories, Grand Island, N.Y.). Other cells lines (PANC-1, MiaPaCa-2 and PC-3) were also similarly maintained, except that the cell culture medium was RPMI 1640 instead of McCoy's.
To evaluate the anti-proliferative activity of synthesized bis(2-fluorobenzylidene)-4-piperidone and its derivatives, the cells were seeded in 96-well flat-bottom tissue culture plates at a density of 10×10^3 cells per well. The cells were allowed to attach and grow overnight. The test compounds were solubilized in dimethyl sulfoxide (DMSO), filtered through 0.2 μm nylon filter and added to cells at 1, 10, 25 and 100 μM concentrations in culture medium supplemented with 5% FBS. The DMSO concentration was maintained at 0.1% per well. Control wells received equivalent volume of DMSO without any test compounds. The cells were allowed to remain in the treatment medium for 24, 48 and 72 hours.
Cell Proliferation: The total number of cells after the treatment period was estimated by the hexosaminidase assay. [Landegren, 1984] Briefly, the medium was removed and hexosaminidase substrate solution in citrate buffer pH 5 (7.5 mM), […] (Calbiochem, San Diego, Calif.) was added at 60 μl per well. The plate was incubated at 37° C. in 100% humidity for 30 minutes, before stopping the reaction with 90 μl of 50 mM glycine containing 5 mM of EDTA (pH 10.4). The absorbance was measured at 405 nm. The experiments were conducted in triplicate, and repeated at least twice. The data were analyzed as percent of control, where the control wells were treated with equivalent amounts of DMSO alone, and the analyzed data was presented as average±standard error of mean. The differences among mean values were deemed significant at p<0.05.
For IC50 calculations, a plot between the drug concentration and hexosaminidase activity was generated and the data was fitted either linearly or exponentially. The best fit was used for further processing of data.

[2] abbreviates: Homo sapiens, NCI-H441, 24 h of treatment, 1-100 μM tested, fitted plot, read-out: IC50 value.
Where [3] appears, read: Homo sapiens, NCI-H441, 24 h of treatment, read-out: IC50 (grouping relative to compound 1).
The mark [4] stands for this setting: 24 h of treatment, 1-100 μM tested, fitted plot, read-out: IC50 value.

On to `O=C1C(=Cc2ccccc2)CNCC1=Cc1ccccc1` [Compound 2, 3,5-Bis(benzylidene)-4-piperidone], for which the results for the pIC50 in data set [1] (setting [2]) and in data set [1] (setting [3]) were 4.92 and greater than 4.52, respectively.
`O=C1C(=Cc2ccccc2Cl)CNCC1=Cc1ccccc1Cl` [Compound 3, 3,5-Bis(2-chlorobenzylidene)-4-piperidone]: in data set [1], the “anti-proliferative activity in words, relative to the comparator named” value is on record as “more anti-proliferative than the 2-fluoro substituted compound 1”. Further, the pIC50 in data set [1] (setting [2]) was 5.30; in data set [1] (setting [3]), greater than 4.52.
Regarding `O=C1C(=Cc2ccccc2Br)CNCC1=Cc1ccccc1Br` [Compound 4, 3,5-Bis(2-bromobenzylidene)-4-piperidone], the negative logarithm of the IC50 (pIC50) was 5.22 in data set [1] (setting [2]) and greater than 4.52 in data set [1] (setting [3]).
For the compound `O=C1C(=Cc2ccccc2[N+](=O)[O-])CNCC1=Cc1ccccc1[N+](=O)[O-]` [Compound 5, 3,5-Bis(2-nitrobenzylidene)-4-piperidone], the “anti-proliferative activity in words, relative to the comparator named” value in data set [1] is “the activity remained more or less the same”. Also, the pIC50 in data set [1] (setting [2]) is 4.03; in data set [1] (setting [3]), less than 4.30.
Take `O=C1C(=Cc2cccc(Cl)c2)CNCC1=Cc1cccc(Cl)c1` [Compound 6, 3,5-Bis(3-chlorobenzylidene)-4-piperidone]: the “anti-proliferative activity in words, relative to the comparator named” value in data set [1] was “little change in IC50 as compared to that of compound 1”. The pIC50 in data set [1] (setting [2]) was 4.30.
In the case of `O=C1C(=Cc2ccc(F)cc2)CNCC1=Cc1ccc(F)cc1` [Compound 7, 3,5-Bis(4-fluorobenzylidene)-4-piperidone], in data set [1] (setting [2]), the pIC50 was 4.34.
On to `O=C1C(=Cc2ccc(Cl)cc2)CNCC1=Cc1ccc(Cl)cc1` [Compound 8, 3,5-Bis(4-chlorobenzylidene)-4-piperidone], for which the “anti-proliferative activity in words, relative to the comparator named” value in data set [1] was “no change in the anti-proliferative activity of 8 compared to that of 7”. The pIC50 in data set [1] (setting [2]) was 4.06; in data set [1] (setting [3]), less than 4.30.
Take `CN(C)c1ccc(C=C2CNCC(=Cc3ccc(N(C)C)cc3)C2=O)cc1` [Compound 9, 3,5-Bis[4-(N,N-dimethylaminoenzylidene)]-4-piperidone]: the negative-log IC50 (pIC50) in data set [1] (setting [4]) is 4.00.
For the compound `OC1C(=Cc2ccccc2F)CNCC1=Cc1ccccc1F` (stereo not shown) [Compound 10, 3,5-Bis(2-fluorobenzylidene)-4-hydroxy-piperidine], in data set [1], the “anti-proliferative activity in words, relative to the comparator named” value is on record as “significantly less anti-proliferative activity as compared to compound 1”. The pIC50 in data set [1] (setting [2]) is 3.91; in data set [1] (setting [3]), less than 4.30.
The corresponding values for `O=C1C(Cc2ccccc2F)CNCC1Cc1ccccc1F` (stereo not shown) [Compound 11, 3,5-Bis(2-fluorobenzyl)-4-piperidone] are “significantly less anti-proliferative activity as compared to compound 1”, 3.89 and less than 4.30.
As for `O=C(O)CCC(=O)N1CC(=Cc2ccccc2F)C(=O)C(=Cc2ccccc2F)C1` [Compound 12], the pIC50 in data set [1] (setting [4]) was 4.16.
On to `O=C(O)C=CC(=O)N1CC(=Cc2ccccc2F)C(=O)C(=Cc2ccccc2F)C1` [Compound 13, 4-[3,5-Bis-(2-fluorobenzylidene)-4-oxo-piperidin-1-yl]-4-oxo-2-butenoic acid], for which, in data set [1], the “anti-proliferative activity in words, relative to the comparator named” value is listed as “significant enhancement in potency”. Further, the figures for the pIC50 in data set [1] (setting [2]) and in data set [1] (setting [3]) were 4.54 and greater than 4.52, respectively.
For the compound `O=C(O)COCC(=O)N1CC(=Cc2ccccc2F)C(=O)C(=Cc2ccccc2F)C1` [Compound 14, 2-[3,5-Bis-(2-fluorobenzylidene)-4-oxo-piperidin-1-yl]-2-oxo-ethoxyacetic acid], in data set [1], the “anti-proliferative activity in words, relative to the comparator named” value is on record as “less potent as compared to compound 15”. Besides, the negative-log IC50 (pIC50) in data set [1] (setting [2]) was 3.51; in data set [1] (setting [3]) it was less than 4.30.
`O=C(O)CCCC(=O)N1CC(=Cc2ccccc2F)C(=O)C(=Cc2ccccc2F)C1` [Compound 15, 5-[3,5-Bis-(2-fluorobenzylidene)-4-oxo-piperidin-1-yl]-5-oxo-pentanoic acid] displayed a melting point of 167 to 168 °C. The pIC50 in data set [1] (setting [2]) was 4.22. The pIC50 in data set [1] (setting [3]) is less than 4.30.
For the compound `O=C1C(=Cc2ccccc2F)CN(C(=O)c2ccccc2C(=O)O)CC1=Cc1ccccc1F` [Compound 16, 2-[3,5-Bis-(2-fluorobenzylidene)-4-oxo-piperidine-1-carbonyl]-benzoic acid], in data set [1], the “anti-proliferative activity in words, relative to the comparator named” value is “very potent analog”. In addition, the negative logarithm of the IC50 (pIC50) in data set [1] (setting [2]) is 4.25; in data set [1] (setting [3]), less than 4.30.
On to `O=CN1CC(=Cc2ccccc2F)C(=O)C(=Cc2ccccc2F)C1` [Compound 18, N-Formyl-3,5-bis(2-fluorobenzylidene)-4-piperidone], for which, in data set [1], the “anti-proliferative activity in words, relative to the comparator named” value is given as “performed slightly better than compound 1”. For the same compound, the pIC50 in data set [1] (setting [2]) is 4.31.
In the case of `CC(=O)N1CC(=Cc2ccccc2F)C(=O)C(=Cc2ccccc2F)C1` [Compound 19, N-Acetyl-3,5-bis(2-fluorobenzylidene)-4-piperidone], the “anti-proliferative activity in words, relative to the comparator named” value in data set [1] was “performed slightly better than compound 1”. Moreover, the pIC50 in data set [1] (setting [2]) was 4.27; in data set [1] (setting [3]) it was less than 4.30.
`O=C(CCC(=O)N1CC(=Cc2ccccc2F)C(=O)C(=Cc2ccccc2F)C1)N[C@H]1C(O)O[C@H](CO)[C@@H](O)[C@@H]1O` (stereo partly shown) [Compound 22, 4-Oxo-4-[3,5-bis(2-fluorobenzylidene-4-piperidonylcarbonyl)-2-glucosepropanamide]]: in data set [1], the “anti-proliferative activity in words, relative to the comparator named” value is listed as “reduced anti-proliferative activity”. In data set [1] (setting [4]), the pIC50 is 4.10.
As for `O=C(CN1CC(=Cc2ccccc2F)C(=O)C(=Cc2ccccc2F)C1)NCc1ccc(F)cc1` [Compound 23, 2-[3,5-Bis(2-fluorobenzylidene-4-piperidone-1-yl)-N-(4-fluorobenzyl)acetamide]], the pIC50 in data set [1] (setting [4]) was 4.34.
Consider `CCCCCCCCCCCCCCCCNC(=O)CCC(=O)N1CC(=Cc2ccccc2F)C(=O)C(=Cc2ccccc2F)C1` [Compound 24, 4-[3,5-Bis-(2-fluorobenzylidene)-4-oxo-piperidin-1-yl]-N-hexadecyl-4-oxo-butyramide], for which the “anti-proliferative activity in words, relative to the comparator named” value in data set [1] is “loss of anti-proliferative activity”. Moreover, the values for the negative-log IC50 (pIC50) in data set [1] (setting [2]) and in data set [1] (setting [3]) were 4.19 and less than 4.30, respectively.
For `CCCCCCCCCCC=CC(CC(=O)O)C(=O)N1CC(=Cc2ccccc2F)C(=O)C(=Cc2ccccc2F)C1` (stereo not shown) [Compound 26, 3-[3,5-Bis-(2-fluorobenzylidene)-4-oxo-piperidine-1-carbonyl]-pentadec-4-enoic acid], the “anti-proliferative activity in words, relative to the comparator named” value in data set [1] was “acceptable anti-proliferative activity”. The pIC50 in data set [1] (setting [2]) was 4.24; in data set [1] (setting [3]), less than 4.30.
In the case of `CCCCCCCCCCCCC=CC(CC(=O)O)C(=O)N1CC(=Cc2ccccc2F)C(=O)C(=Cc2ccccc2F)C1` (stereo not shown) [Compound 27, 3-[3,5-Bis-(2-fluorobenzylidene)-4-oxo-piperidine-1-carbonyl]-heptadec-4-enoic acid], the “anti-proliferative activity in words, relative to the comparator named” value in data set [1] was “acceptable anti-proliferative activity”. Also, the negative-log IC50 (pIC50) in data set [1] (setting [2]) is 4.33.
As to `CCCCCCCCCCCCCCCCC=CC(CC(=O)O)C(=O)N1CC(=Cc2ccccc2F)C(=O)C(=Cc2ccccc2F)C1` (stereo not shown) [Compound 28, 3-[3,5-Bis-(2-fluorobenzylidene)-4-oxo-piperidine-1-carbonyl]-heneicos-4-enoic acid], in data set [1], the “anti-proliferative activity in words, relative to the comparator named” value is on record as “total loss of activity”. Further, the pIC50 was 4.08 in data set [1] (setting [2]) and less than 4.30 in data set [1] (setting [3]).
